Results on 3 compounds are retold here after article PMC8126811, “Clinical translation of choline and geranic acid deep eutectic solvent” (Bioengineering & Translational Medicine, 2020).

For orientation: LogP means the decadic logarithm of the partition coefficient of the neutral form, usually between octanol and water.

The conditions of data set [1]: octanol-water partition coefficient; no reference given; cited from earlier work.
A short description of data set [2]: Human cadaver skin permeation evaluation (static Franz cells). It counts as in vitro ADME. As for the experimental part:
Dermatomed full thickness human cadaver skin samples, 250–350 μm, were mounted onto static Franz cells. […] Phosphate buffered saline, pH 7.4 was used as the receptor medium. CGB400 gel was applied to the SC side of the skin samples at a dose of ~15 μl/cm^2 (~15 mg/cm^2). The cells were kept in a chamber at 37°C for a period of 24 h. Stirrers in the receptor chamber ensured that the receptor media was well mixed during this time. The receptor media was sampled at 4, 7, and 24 h to quantify the amount of choline and geranic acid permeation. After 24 h, the skin surface was washed before removing the SC by tape stripping. The SC was stripped from the epidermis using an adhesive tape up to 10 layers (SC1, SC2‐5, SC6‐10). Following SC removal, the epidermis was separated from the dermis using a surgical sterile scalpel and the dermis was cut into pieces. Each layer was collected separately in glass vials containing 2 ml of 50:50 water:methanol mixture and was left to shake overnight to extract the choline and geranic acid. The amount of choline and geranic acid was measured using LC–MS/MS in the wash, epidermis, dermis, and the receptor medium.

With `C[N+](C)(C)CCO` [choline], in data set [1], the LogP is reported as −3.7.
As to `CC(C)=CCC/C(C)=C/C(=O)O` [geranic acid], the LogP in data set [1] was 2.8.
As to Choline geranate [CAGE1:2], in data set [2], the “applied CAGE1:2 dose penetrated into the dermis” value is “About 9.5%” and the “molar ratio of choline to geranic acid in the epidermis” value is reported as 1.18.
